≈ marks a conversion by molar mass, not a printed value. Entries after “also recorded” stand apart in the source; their conditions may differ. Like-named read-outs stand apart in the source and are kept apart here.
What was measured:
LogD = assay type: physicochemical
Microsomal stability = assay type: in vitro ADME; details: human liver microsomes
[1] = system: RSV L mutant (Y1631H in L polymerase); assay type: cell-based, Respiratory syncytial virus; details: for EC50: read-out: L Mutant EC50
subgenomic RSV replicon [2] = assay type: cell-based, Respiratory syncytial virus; details: for EC50: read-out: Replicon EC50, APC126-E RSV replicon cells, 48 hours, luminescence; for activity in the primary screen (RSV replicon), in words: 10 μM, HTS data
Plasma protein binding = assay type: in vitro ADME
Hepatic clearance = assay type: in vitro ADME
[3] = system: RSV N mutant (nucleoprotein mutations); assay type: cell-based, Respiratory syncytial virus; details: for EC50: read-out: N Mutant EC50, CPE assay, RSV604-resistant N mutant virus
RSV A Long = assay type: cell-based, Respiratory syncytial virus; details: read-out: RSV Long EC50; Hep2 cells, CPE assay
RSV B Washington = assay type: cell-based, Respiratory syncytial virus; details: read-out: RSV B EC50, Hep2 cells, CPE assay
Aqueous solubility = assay type: physicochemical
hERG channel = hERG channel (Homo sapiens, UniProt Q12809); assay: hERG channel inhibition; assay type: biochemical
Chain of hERG channel (Q12809 whole entry): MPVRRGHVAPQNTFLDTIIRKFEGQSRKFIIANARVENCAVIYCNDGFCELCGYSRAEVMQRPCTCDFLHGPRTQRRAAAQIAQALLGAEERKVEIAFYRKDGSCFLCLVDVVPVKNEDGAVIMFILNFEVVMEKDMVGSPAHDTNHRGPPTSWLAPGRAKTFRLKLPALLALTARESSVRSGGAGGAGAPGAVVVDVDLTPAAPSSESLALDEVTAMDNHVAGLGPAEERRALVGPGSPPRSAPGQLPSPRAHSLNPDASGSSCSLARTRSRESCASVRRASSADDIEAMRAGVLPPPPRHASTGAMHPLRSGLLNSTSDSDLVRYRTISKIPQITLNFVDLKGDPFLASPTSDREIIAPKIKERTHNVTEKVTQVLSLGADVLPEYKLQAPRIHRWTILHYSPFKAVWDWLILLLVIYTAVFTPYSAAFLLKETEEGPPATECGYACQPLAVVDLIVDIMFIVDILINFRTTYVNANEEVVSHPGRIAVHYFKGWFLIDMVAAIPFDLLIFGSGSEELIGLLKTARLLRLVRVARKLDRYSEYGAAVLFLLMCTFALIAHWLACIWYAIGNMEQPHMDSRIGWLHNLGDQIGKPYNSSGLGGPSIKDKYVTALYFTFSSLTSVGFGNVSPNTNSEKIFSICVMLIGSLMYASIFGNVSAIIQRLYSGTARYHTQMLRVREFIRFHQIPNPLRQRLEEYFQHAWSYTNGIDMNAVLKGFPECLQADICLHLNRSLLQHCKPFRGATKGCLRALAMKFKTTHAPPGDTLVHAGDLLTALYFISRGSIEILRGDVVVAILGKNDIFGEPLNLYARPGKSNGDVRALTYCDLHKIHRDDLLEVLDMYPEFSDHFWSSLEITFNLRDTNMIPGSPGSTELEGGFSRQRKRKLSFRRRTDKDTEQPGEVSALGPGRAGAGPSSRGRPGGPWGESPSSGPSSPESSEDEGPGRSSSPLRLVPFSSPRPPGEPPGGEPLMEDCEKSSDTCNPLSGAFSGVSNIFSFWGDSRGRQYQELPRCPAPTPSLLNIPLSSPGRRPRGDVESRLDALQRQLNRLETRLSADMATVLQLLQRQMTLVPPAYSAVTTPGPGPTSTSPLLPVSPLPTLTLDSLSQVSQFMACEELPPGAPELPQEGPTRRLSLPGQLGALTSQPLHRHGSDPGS

[4] = biological target: RSV polymerase (L/P complex) (Human respiratory syncytial virus A, UniProt P28887); assay: In vitro RNA synthesis assay with purified L/P complex; assay type: biochemical
Chain of RSV polymerase (L/P complex) (P03421 whole entry): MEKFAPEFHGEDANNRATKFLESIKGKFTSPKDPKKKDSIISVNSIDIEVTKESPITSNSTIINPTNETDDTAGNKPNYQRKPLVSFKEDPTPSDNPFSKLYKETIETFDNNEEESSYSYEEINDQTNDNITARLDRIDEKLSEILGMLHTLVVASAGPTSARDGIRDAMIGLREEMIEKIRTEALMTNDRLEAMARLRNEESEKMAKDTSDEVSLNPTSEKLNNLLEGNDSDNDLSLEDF
Chain of RSV polymerase (L/P complex) (P28887 whole entry): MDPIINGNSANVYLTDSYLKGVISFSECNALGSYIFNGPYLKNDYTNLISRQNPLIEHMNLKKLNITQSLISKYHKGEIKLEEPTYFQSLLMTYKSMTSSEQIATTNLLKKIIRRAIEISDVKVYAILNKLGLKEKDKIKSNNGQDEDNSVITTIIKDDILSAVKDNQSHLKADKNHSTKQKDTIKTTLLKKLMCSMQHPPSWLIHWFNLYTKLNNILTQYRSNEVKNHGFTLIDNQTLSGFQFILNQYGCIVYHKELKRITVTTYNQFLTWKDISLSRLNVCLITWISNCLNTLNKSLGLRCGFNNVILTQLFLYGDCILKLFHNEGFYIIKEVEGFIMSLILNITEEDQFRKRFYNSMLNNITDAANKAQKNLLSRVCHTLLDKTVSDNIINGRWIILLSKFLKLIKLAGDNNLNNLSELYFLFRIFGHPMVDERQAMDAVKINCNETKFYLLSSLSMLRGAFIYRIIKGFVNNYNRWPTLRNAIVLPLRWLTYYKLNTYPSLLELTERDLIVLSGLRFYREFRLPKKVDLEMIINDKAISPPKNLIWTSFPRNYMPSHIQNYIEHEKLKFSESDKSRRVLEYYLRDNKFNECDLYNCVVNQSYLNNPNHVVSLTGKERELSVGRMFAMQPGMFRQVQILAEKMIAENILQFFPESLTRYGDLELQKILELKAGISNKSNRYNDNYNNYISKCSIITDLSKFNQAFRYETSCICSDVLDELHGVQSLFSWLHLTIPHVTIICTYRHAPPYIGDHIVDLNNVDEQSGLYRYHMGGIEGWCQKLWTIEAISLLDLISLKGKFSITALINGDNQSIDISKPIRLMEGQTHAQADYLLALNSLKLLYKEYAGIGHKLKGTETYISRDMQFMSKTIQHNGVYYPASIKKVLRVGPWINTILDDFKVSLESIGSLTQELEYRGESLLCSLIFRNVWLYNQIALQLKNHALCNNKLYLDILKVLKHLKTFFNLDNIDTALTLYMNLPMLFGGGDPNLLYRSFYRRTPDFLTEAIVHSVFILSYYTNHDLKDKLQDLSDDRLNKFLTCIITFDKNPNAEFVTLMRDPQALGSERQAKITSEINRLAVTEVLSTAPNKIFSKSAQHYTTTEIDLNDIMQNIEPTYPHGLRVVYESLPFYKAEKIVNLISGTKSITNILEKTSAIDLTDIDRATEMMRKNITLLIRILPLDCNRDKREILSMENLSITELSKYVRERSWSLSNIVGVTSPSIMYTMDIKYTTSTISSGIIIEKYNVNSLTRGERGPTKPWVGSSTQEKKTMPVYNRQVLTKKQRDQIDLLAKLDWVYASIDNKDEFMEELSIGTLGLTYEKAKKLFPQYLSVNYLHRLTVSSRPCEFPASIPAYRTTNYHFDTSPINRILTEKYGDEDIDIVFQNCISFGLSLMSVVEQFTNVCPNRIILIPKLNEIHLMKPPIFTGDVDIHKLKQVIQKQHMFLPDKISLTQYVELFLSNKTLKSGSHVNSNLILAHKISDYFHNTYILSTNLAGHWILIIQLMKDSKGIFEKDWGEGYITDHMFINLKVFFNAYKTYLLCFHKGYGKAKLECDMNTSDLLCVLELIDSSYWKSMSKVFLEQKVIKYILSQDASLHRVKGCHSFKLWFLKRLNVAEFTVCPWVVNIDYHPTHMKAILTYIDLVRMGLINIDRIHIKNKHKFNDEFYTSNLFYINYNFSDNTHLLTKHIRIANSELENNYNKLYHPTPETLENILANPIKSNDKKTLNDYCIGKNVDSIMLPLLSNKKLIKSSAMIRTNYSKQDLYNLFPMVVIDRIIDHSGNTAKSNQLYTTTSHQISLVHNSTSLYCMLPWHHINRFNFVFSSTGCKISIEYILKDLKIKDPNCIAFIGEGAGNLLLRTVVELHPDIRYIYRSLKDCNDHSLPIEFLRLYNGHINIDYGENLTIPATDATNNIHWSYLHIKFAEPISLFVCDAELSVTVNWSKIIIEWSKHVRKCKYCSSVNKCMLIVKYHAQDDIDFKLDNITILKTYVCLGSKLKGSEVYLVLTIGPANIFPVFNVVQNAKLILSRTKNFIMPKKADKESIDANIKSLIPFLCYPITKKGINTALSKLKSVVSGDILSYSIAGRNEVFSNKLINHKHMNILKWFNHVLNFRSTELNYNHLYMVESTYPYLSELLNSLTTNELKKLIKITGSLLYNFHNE

subgenomic RSV replicon [5] = details: read-out: Replicon EC50; assay validation; ref Tiong-Yip et al (2014); cited from earlier work

Row | SMILES | LogD (LogD) | HLM (Microsomal stability) [µL/min/mg] | shift in activity against the L-mutant strain [1] | EC50 [1] [µM] | EC50 (subgenomic RSV replicon [2]) [µM] | PPB (% free) (Plasma protein binding) | Rhep (Hepatic clearance) [μL/min/10^6 cells] | EC50 [3] [µM] | EC50 (RSV A Long) [nM] | EC50 (RSV B Washington) [µM] | Solubility (Aqueous solubility) [µM] | other results
1 | O=S(=O)(c1cccs1)N1CCCCN2[C@H](CO)[C@@H](c3ccc(/C=C/c4ccccc4)cc3)[C@@H]2C1 [BRD9101] | >4.8 | 57.1 | greater than 15 fold | > 25 | 4.3 | <1 | 67.8 | 7.8 | 1700 | > 50 | <1 | % inhibition of the RSV replicon in the primary screen (subgenomic RSV replicon [2]; 10 uM, single concentration HTS): 70%; N Mutant fold shift ([3]; shift versus RSV A2 EC50): 4.6 x
2 | CN1c2ccc(-c3ccc(C#N)cc3)cc2[C@H]2[C@H](CCN2C(=O)c2cccc(F)c2)[C@@H]1CO [BRD4517] |  |  |  |  | 10.6 |  |  |  | 1600 | 5.5 |  | 
3 | Cc1cccc(-c2ccc([C@@H]3[C@@H](CO)N4CCCCN(S(=O)(=O)c5cn(C)cn5)C[C@@H]34)cc2)c1 [BRD3969] | 3.6 | 77.9 | greater than 6 fold | > 25 | 4.2 | 1.6 | 61.7 | 6.9 | 3900 | > 50 | 49 (≈ 23.6 µg/mL) | L Mutant fold shift [1]: > 25 μM (>6x); activity in the primary screen (RSV replicon), in words (subgenomic RSV replicon [2]): weak but significant activity; effect on T7 RNA polymerase (input minigenome template) (T7 RNA polymerase): inhibited T7 RNA polymerase; N Mutant fold shift [3]: 6.9 μM (1.8x); hERG (% inh at 11 μM) (hERG channel): 14%; effect on RSV RNA synthesis initiation or elongation in vitro ([4]; 1000 μM, data not shown): no effect; effect on in vitro RNA synthesis (de novo synthesis, back-priming) ([4]; concentrations up to 100 μM, 30 °C, 2 h): does not inhibit the ability of the polymerase to synthesize RNA; also recorded: no discernible effect
4 | O=C(NC1CC1)c1cc2c(s1)-c1ccccc1N(C(=O)c1ccc(NC(=O)c3ccccc3-c3ccccc3)cc1)CC2 [YM53403] |  |  |  |  |  |  |  |  |  |  |  | EC50 (subgenomic RSV replicon [5]): 0.63 µM
5 | NC(=O)c1ncn([C@@H]2O[C@H](CO)[C@@H](O)[C@H]2O)n1 [ribavirin] |  |  |  |  |  |  |  |  |  |  |  | EC50 (subgenomic RSV replicon [5]): 6.28 µM
6 | Cn1cnc(S(=O)(=O)N2CCCCN3[C@H](CO)[C@@H](c4ccc(-c5ccc(F)cc5)cc4)[C@@H]3C2)c1 [BRD65768] | 3.3 | 41.2 | > 3 fold | > 25 | 4.3 | 2.1 | 23.6 | 13.1 | 7500 | > 50 | 121 (≈ 58.6 µg/mL) | L Mutant fold shift ([1]; shift versus RSV A2 EC50): > 4 x; activity in the primary screen (RSV replicon), in words (subgenomic RSV replicon [2]): weak but significant activity; N Mutant fold shift ([3]; shift versus RSV A2 EC50): 2 x; hERG (% inh at 11 μM) (hERG channel): 18%
7 | COc1cc(CN2CC3(CCN(S(=O)(=O)c4cn(C)cn4)CC3)c3c(n(C)c4cc(OC)ccc34)[C@H]2CO)cc(OC)c1 [BRD3482] | 2.9 |  |  |  | 7.2 | 3.8 |  |  | 1000 | 4.7 | 22 (≈ 13.4 µg/mL) | 
8 | COc1ccc2c3c([nH]c2c1)[C@H](CO)N(Cc1ccccc1)CC31CCN(C(=O)Cc2ccccc2)CC1 [BRD5449] | >4.4 | 465 |  |  | 4.9 | <1 | 194 |  | 6800 | > 50 | 16 (≈ 8.15 µg/mL) | 

Source: article PMC4937797 (Antiviral research, 2016)
